The first assay has as its system Myzus persicae. Briefly: Myzus persicae oral test. In kind it is in vivo. Particulars: 120 h, 20 ppm, oral uptake, after 5 days, read-out: efficacy. As to the method: Myzus persicae—Oral Test Solvent: 100 parts by weight of acetone To produce a suitable preparation of active compound, 1 part by weight of active compound is dissolved using the specified parts by weight of solvent and made up with water until the desired concentration is attained. 50 μl of the active compound preparation are transferred into microtitre plates and made up to a final volume of 200 μl with 150 μl of IPL41 insect medium (33%+15% sugar). Subsequently, the plates are sealed with parafilm, which a mixed population of green peach aphids (Myzus persicae) within a second microtitre plate is able to puncture and imbibe the solution through it. After 5 days, the efficacy in % is determined. 100% means that all the aphids have been killed; 0% means that no aphids have been killed.
As for `CCc1[nH]c(-c2c(C)cccc2C)nc1C(=O)NS(=O)(=O)c1ccccc1Cl` [Example 208], the pest or weed control at 20 ppm is 90%.
Still for that read-out and setting: to `CSc1ccccc1-c1nc(C(=O)NS(=O)(=O)c2ccccc2Cl)cn1C` [Example 213] belongs 100%; to `CCc1[nH]c(-c2cccc(Br)c2)nc1C(=O)NS(=O)(=O)c1ccccc1Cl` [Example 136], 90%; to `COc1ccc(Cl)c(S(=O)(=O)NC(=O)c2nc(-c3ccccc3Cl)c(C)[nH]2)c1` [Example 201], 100%.
The same measure, in the same setting: to `COc1ccccc1S(=O)(=O)NC(=O)c1cn(C)c(-c2csc3ccccc23)n1` [Example 531] belongs 90%; to `Cc1nn(C)c(Cl)c1S(=O)(=O)NC(=O)c1cn(C)c(-c2c(F)cccc2F)n1` [Example 348], 100%.
Still for that read-out and setting: with `COc1ccccc1S(=O)(=O)NC(=O)c1cn(C)c(-c2ccccc2SC)n1` [Example 215] the figure was 90%; with `Cc1[nH]c(-c2cccc(C(C)C)c2)nc1C(=O)NS(=O)(=O)c1ccccc1Cl` [Example 617], 100%; with `CCc1[nH]c(-c2cccc(C(F)(F)F)c2)nc1C(=O)NS(=O)(=O)C(C)C` [Example 248], 100%.
As for `CCc1[nH]c(-c2ccc(F)cc2F)nc1C(=O)NS(=O)(=O)c1ccccc1C` [Example 245], the pest or weed control at 20 ppm was determined as 100%.
On the same count and under the same terms, to `COc1ccc(Br)cc1S(=O)(=O)NC(=O)c1nc(-c2c(F)cccc2F)n(C)n1` [Example 327] belongs 90%.
Turning to `Cc1cc(C(=O)NS(=O)(=O)c2ccccc2Br)nn1-c1cccc(Cl)c1Cl` [Example 302], the pest or weed control at 20 ppm came to 100%.
The same measure, in the same setting: with `Cc1cccc(OS(C)(=O)=O)c1S(=O)(=O)NC(=O)c1cn(C)c(-c2c(F)cccc2F)n1` [Example 368] the figure was 90%; with `CCc1[nH]c(-c2cccc(Cl)c2)nc1C(=O)NS(=O)(=O)C(C)C` [Example 131], 90%.
On to `CSc1ccccc1-c1nc(C(=O)NS(=O)(=O)c2ccccc2C)cn1C` [Example 214], for which the pest or weed control at 20 ppm was 100%.
Still for that read-out and setting: with `CCc1[nH]c(-c2cccc(Cl)c2)nc1C(=O)NS(=O)(=O)c1cc(OC)ccc1Cl` [Example 130] the figure was 90%; with `COc1ccc(Cl)c(S(=O)(=O)NC(=O)c2nc(-c3cccc(Cl)c3)[nH]c2C)c1` [Example 619], 100%; with `Cc1cc(C(=O)NS(=O)(=O)c2ccc(Cl)s2)nn1-c1cc(Cl)ccc1Cl` [Example 299], 90%.
Regarding `Cn1cc(C(=O)NS(=O)(=O)c2ccccc2N)nc1-c1ccccc1Cl` [Example 132], the pest or weed control at 20 ppm came out at 100%.
On to `CCc1[nH]c(-c2cc(C)cc(C)c2)nc1C(=O)NS(=O)(=O)c1ccccc1C` [Example 470], for which the pest or weed control at 20 ppm was 100%.
Consider `Cn1cc(C(=O)NS(=O)(=O)c2cnc(Cl)s2)nc1-c1c(F)cccc1F` [Example 345], for which the pest or weed control at 20 ppm stood at 90%.
Still for that read-out and setting: with `O=C(NS(=O)(=O)c1ccccc1Cl)c1c[nH]c(-c2c(F)cccc2F)n1` [Example 412] the figure was 90%.
Same read-out and setting: with `Cc1[nH]c(C(=O)NS(=O)(=O)c2ccccc2Cl)nc1-c1ccccc1Cl` [Example 418] the figure was 90%; with `CCc1[nH]c(-c2ccc(Cl)cc2)nc1C(=O)NS(=O)(=O)C(C)C` [Example 601], 90%; with `Cc1ccc(F)cc1S(=O)(=O)NC(=O)c1cc(C)n(-c2cccc(Cl)c2Cl)n1` [Example 305], 90%.
Same read-out and setting: to `CCCOc1ccc(Cl)c(S(=O)(=O)NC(=O)c2cn(C)c(-c3c(F)cccc3F)n2)c1` [Example 180] belongs 100%; to `COc1ccc(Cl)c(S(=O)(=O)NC(=O)c2nc(-c3c(F)cccc3F)[nH]c2C)c1` [Example 191], 90%.
Turning to `CCc1[nH]c(-c2cc(Cl)cc(Cl)c2)nc1C(=O)NS(=O)(=O)c1ccccc1OC` [Example 137], the pest or weed control at 20 ppm is 90%.
Same read-out and setting: with `COc1ccc(OC)c(S(=O)(=O)NC(=O)c2cn(C)c(-c3ccccc3S(C)(=O)=O)n2)c1` [Example 509] the figure was 100%; with `Cc1cccc(Cl)c1S(=O)(=O)NC(=O)c1cc(C)n(-c2cccc(Cl)c2Cl)n1` [Example 306], 100%.
The same measure, in the same setting: with `Cn1cc(C(=O)NS(=O)(=O)c2cc(C#N)ccc2Cl)nc1-c1c(F)cccc1F` [Example 452] the figure was 100%; with `Cc1ccccc1S(=O)(=O)NC(=O)c1cnc(-c2c(F)cccc2F)n1C` [Example 163], 100%; with `COc1ccc(Cl)c(S(=O)(=O)NC(=O)c2nc(-c3ccc(Cl)c(Cl)c3)[nH]c2C)c1` [Example 615], 100%.
On the same count and under the same terms, to `Cc1[nH]c(-c2cccc(Cl)c2)nc1C(=O)NS(=O)(=O)C(C)C` [Example 236] belongs 90%; to `CCc1[nH]c(-c2cccc(C(F)(F)F)c2)nc1C(=O)NS(=O)(=O)c1ccccc1Cl` [Example 247], 100%; to `CC(C)c1cccc(-c2nc(C(=O)NS(=O)(=O)c3ccccc3Cl)c(C(C)C)[nH]2)c1` [Example 612], 100%.
Regarding `Cc1[nH]c(-c2cccc(C(C)C)c2)nc1C(=O)NS(=O)(=O)C(C)C` [Example 620], the pest or weed control at 20 ppm came to 90%.
With `CCc1c(C(=O)NS(=O)(=O)c2ccccc2Br)nc(-c2c(F)cccc2F)n1C` [Example 198], the pest or weed control at 20 ppm stood at 100%.

The test system of the next assay is Myzus persicae. Briefly: Myzus persicae spray test (Chinese cabbage leaf discs). In kind it is in vivo. The following applies: foliar, 120 h, 500 g/ha, after 5-6 days, read-out: efficacy. The protocol: Myzus persicae—Spray Test Solvent: 78 parts by weight of acetone • • 1.5 parts by weight of dimethylformamide Emulsifier: alkylaryl polyglycol ether To produce a suitable preparation of active compound, 1 part by weight of active compound is dissolved using the specified parts by weight of solvent and made up with water containing an emulsifier concentration of 1000 ppm until the desired concentration is attained. To produce further test concentrations, the formulation is diluted with emulsifier-containing water. Discs of Chinese cabbage leaves (Brassica pekinensis) infested by all stages of the green peach aphid (Myzus persicae) are sprayed with an active compound preparation of the desired concentration. After 5-6 days, the efficacy in % is determined. 100% means that all the aphids have been killed; 0% means that no aphids have been killed.
Regarding `CCS(=O)(=O)NC(=O)c1cn(C)c(-c2ccccc2C)n1` [Example 89], the pest or weed control at 500 g/ha was 90%.
The same measure, in the same setting: with `CCc1[nH]c(-c2ccccc2Cl)nc1C(=O)NS(=O)(=O)C(C)C` [Example 121] the figure was 90%; with `COc1ccc(Cl)c(S(=O)(=O)NC(=O)c2cnc(-c3cc(Cl)cc(Cl)c3)[nH]2)c1` [Example 224], 90%; with `Cn1cc(C(=O)NS(=O)(=O)c2cc(C(F)(F)F)ccc2C(F)(F)F)nc1-c1c(F)cccc1F` [Example 400], 90%.
The same measure, in the same setting: to `COc1ccc(Cl)c(S(=O)(=O)NC(=O)c2cnc(-c3c(F)cccc3F)n2C)c1` [Example 160] belongs 90%.
On the same count and under the same terms, to `CCS(=O)(=O)NC(=O)c1cn(C)c(-c2c(F)cccc2F)n1` [Example 86] belongs 100%; to `Cn1cc(C(=O)NS(=O)(=O)c2cccs2)nc1-c1c(F)cccc1F` [Example 349], 100%.
As for `CN(C)S(=O)(=O)NC(=O)c1cn(C)c(-c2ccccc2Cl)n1` [Example 204], the pest or weed control at 500 g/ha was found to be 100%.
Still for that read-out and setting: with `Cn1cc(C(=O)NS(=O)(=O)CC(F)(F)F)nc1-c1ccccc1F` [Example 90] the figure was 100%.
On the same count and under the same terms, to `Cn1cc(C(=O)NS(=O)(=O)CC(F)(F)F)nc1-c1c(Cl)cccc1Cl` [Example 80] belongs 90%; to `COc1ccccc1S(=O)(=O)NC(=O)c1cn(C)c(-c2cc(F)ccc2F)n1` [Example 526], 90%.
The same measure, in the same setting: with `COc1ccccc1S(=O)(=O)NC(=O)c1cn(C)c(-c2ccccc2[N+](=O)[O-])n1` [Example 529] the figure was 100%.
For the compound `Cc1ccccc1S(=O)(=O)NC(=O)c1cn(C)c(-c2cccnc2)n1` [Example 488], the pest or weed control at 500 g/ha turned out to be 90%.
On the same count and under the same terms, to `Cn1cc(C(=O)NS(=O)(=O)CC(F)(F)F)nc1-c1c(F)cccc1F` [Example 84] belongs 100%; to `Cn1cc(C(=O)NS(=O)(=O)c2cc(F)ccc2F)nc1-c1c(F)cccc1F` [Example 455], 90%; to `COc1cc(C)c(S(=O)(=O)NC(=O)c2cn(C)c(-c3c(F)cccc3F)n2)cc1C` [Example 138], 100%.
The same measure, in the same setting: to `Cc1nc(Cl)sc1S(=O)(=O)NC(=O)c1cn(C)c(-c2c(F)cccc2F)n1` [Example 346] belongs 90%; to `Cc1ccccc1S(=O)(=O)NC(=O)c1cn(C)c(-c2ccccn2)n1` [Example 493], 100%; to `Cn1cc(C(=O)NS(=O)(=O)c2cccc(C#N)c2)nc1-c1ccccc1Cl` [Example 167], 90%.
Same read-out and setting: to `Cc1ccccc1S(=O)(=O)NC(=O)c1cn(C)c(-c2ccccc2OC(F)(F)F)n1` [Example 458] belongs 90%; to `Cn1cc(C(=O)NS(=O)(=O)c2c(F)cccc2F)nc1-c1c(Cl)cccc1Cl` [Example 24], 90%; to `Cn1cc(C(=O)NS(=O)(=O)c2cc(Cl)cc(Cl)c2)nc1-c1ccccc1Cl` [Example 166], 90%.
With `CS(=O)(=O)NC(=O)c1cn(-c2cccc(Cl)c2)c(-c2ccccc2Cl)n1` [Example 72], the pest or weed control at 500 g/ha was 90%.
On the same count and under the same terms, with `Cc1[nH]c(C(=O)NS(=O)(=O)c2ccccc2Cl)nc1-c1c(F)cccc1F` [Example 145] the figure was 90%.

For the origin of these results see patent publication US20200288710A1, “SUBSTITUTED SULPHONAMIDES FOR CONTROLLING ANIMAL PESTS” (BAYER CROPSCIENCE AKTIENGESELLSCHAFT, priority 2016, published 2020).
